Test results published in US7256192B2, “Aromatic diamide derivatives, chemicals for agricultural or horticultural use and usage thereof” (Nihon Nohyaku Co., Ltd., priority 1999, dated 2007).

System: common cutworm (Spodoptera litura)
Test: Insecticidal effect on common cutworm (Test Example 2)
Format: in vivo
Settings: 50 ppm; cabbage leaf immersed about 30 seconds; second-instar larvae; eight days after the inoculation; 25° C.
From the text: Insecticidal effect on common cutworm (Spodoptera litura)
A piece of cabbage leaf (cultivar: Shikidori) was immersed for about 30 seconds in a liquid chemical prepared by diluting a preparation containing each compound listed in Table 1 or Table 2, as an active ingredient to adjust the concentration to 50 ppm. After air-drying, the piece was placed in a plastic Petri dish with a diameter of 9 cm and inoculated with second-instar larvae of common cutworm, after which the dish was closed and then allowed to stand in a room thermostated at 25° C. Eight days after the inoculation, the dead and alive were counted and the mortality was calculated according to the following equation, whereby the insecticidal effect was judged according to the criterion shown in Test Example 1. The test was carried out with three replications of 10 insects.

Structure (SMILES)	insecticidal activity (mortality rating)
CCN(CC)C(=O)OCC(C)NC(=O)c1c(I)cccc1C(=O)Nc1ccc(C(F)(C(F)(F)F)C(F)(F)F)nc1C (racemic) [2-32]	B or higher
CCNC(=O)OCC(C)NC(=O)c1c(I)cccc1C(=O)Nc1ccc(C(F)(C(F)(F)F)C(F)(F)F)nc1Cl (racemic) [2-39]	B or higher
CCNC(=O)OCC(C)NC(=O)c1c(I)cccc1C(=O)Nc1ccc(OC(C(F)(F)F)C(F)(F)F)nc1C (racemic) [2-47]	B or higher
COc1ccc(CNC(=O)OCC(C)NC(=O)c2c(I)cccc2C(=O)Nc2ccc(OC(C(F)(F)F)C(F)(F)F)nc2C)cc1 (racemic) [2-72]	B or higher
CNC(=O)OCC(C)(C)NC(=O)c1c(I)cccc1C(=O)Nc1ccc(C(F)(C(F)(F)F)C(F)(F)F)nc1C [2-35]	B or higher
CCOC(=O)NCC(C)(C)NC(=O)c1c(I)cccc1C(=O)Nc1ccc(C(F)(F)C(F)(F)F)cc1C [compound 19]	B or higher
COC(=O)NCC(C)NC(=O)c1c(I)cccc1C(=O)Nc1ccc(C(F)(C(F)(F)F)C(F)(F)F)cc1C (stereo not shown) [compound 22]	B or higher
CC(=O)NCC(C)(C)NC(=O)c1c(I)cccc1C(=O)Nc1ccc(C(F)(C(F)(F)F)C(F)(F)F)cc1C [compound 28]	B or higher
Cc1cc(C(F)(C(F)(F)F)C(F)(F)F)ccc1NC(=O)c1cccc(I)c1C(=O)NC(C)(C)CNC(=O)C1CC1 [compound 29]	B or higher
Cc1cc(C(F)(C(F)(F)F)C(F)(F)F)ccc1NC(=O)c1cccc(I)c1C(=O)NCC1COC(C)(C)O1 (stereo not shown) [compound 51]	B or higher
COCCC(C)NC(=O)c1c(I)cccc1C(=O)Nc1ccc(C(F)(C(F)(F)F)C(F)(F)F)cc1C (stereo not shown) [compound 59]	B or higher
Cc1cc(C(F)(C(F)(F)F)C(F)(F)F)ccc1NC(=O)c1cccc(I)c1C(=O)NC(C)CCOCC(C)C (stereo not shown) [compound 74]	B or higher
Cc1cc(C(F)(C(F)(F)F)C(F)(F)F)ccc1NC(=O)c1cccc(I)c1C(=O)NC(C)COC(=O)N(C)C (stereo not shown) [compound 88]	B or higher
CCCNC(=O)OCC(C)(C)NC(=O)c1c(I)cccc1C(=O)Nc1ccc(C(F)(C(F)(F)F)C(F)(F)F)cc1C [compound 129]	B or higher
CCCNC(=O)OCC(C)(C)NC(=O)c1c(I)cccc1C(=O)Nc1ccc(C(F)(C(F)(F)F)C(F)(F)F)cc1Cl [compound 130]	B or higher
Cc1cc(C(F)(C(F)(F)F)C(F)(F)F)ccc1NC(=O)c1cccc(I)c1C(=O)NC(C)COC(=O)NC1CC1 (stereo not shown) [compound 133]	B or higher
Cc1cc(OC(F)(F)F)ccc1NC(=O)c1cccc(I)c1C(=O)NC(C)COC(=O)NC1CC1 (stereo not shown) [compound 134]	B or higher
COCCNC(=O)OCC(C)(C)NC(=O)c1c(I)cccc1C(=O)Nc1ccc(C(F)(C(F)(F)F)C(F)(F)F)cc1C [compound 172]	B or higher
CSCCCNC(=O)OCC(C)(C)NC(=O)c1c(I)cccc1C(=O)Nc1ccc(C(F)(C(F)(F)F)C(F)(F)F)cc1C [compound 184]	B or higher
Cc1cc(C(F)(C(F)(F)F)C(F)(F)F)ccc1NC(=O)c1ccc(Cl)c(Cl)c1C(=O)NC(C)COC(=O)NCc1ccccc1 (stereo not shown) [compound 229]	B or higher
CCNC(=O)OCC(C)NC(=O)c1c(I)cccc1C(=O)Nc1ccc(C(F)(F)C(F)(F)C(F)(F)F)cc1C (stereo not shown) [compound 272]	B or higher
CCNC(=O)OCC(C)NC(=O)c1c(I)cccc1C(=O)Nc1ccc(C(OCC)(C(F)(F)F)C(F)(F)F)cc1C (stereo not shown) [compound 279]	B or higher
